In patent US20230143751A1, “Aromatic Compound And Use Thereof In Preparing Antineoplastic Drugs” (Shanghai Zheye Biotechnology Co. Ltd., priority 2020, published 2023):

Experiments:
[1] = system: NCI-H358 cells; assay: Cell proliferation activity of NCI-H358 by CellTiter-Glo reagent; type: cell-based; details: for IC50: Homo sapiens, NCI-H358, test 8, method of test 3, read-out: IC50 of proliferation inhibitory activity of the compound on NCI-H358 cell line
Description: NCI-H358 cells in exponential growth phase were digested with trypsin-EDTA, plated in a 96-well plate with 2000-3000 cells per well, and incubated overnight at 37° C. with 5% CO2. […] After the incubation, CellTiter-Glo test reagent with an equal volume was added into each well and the obtained 96-well plate was incubated after shaking. The chemiluminescence values were determined by microplate reader, and the IC50 values of the test compounds inhibiting the proliferation of NCI-H358 cells were fitted and calculated by GraphPad Prism software.
The test method of inhibitory activity was the same as that in Test 3 in “Biological Tests” part.

[2] = target: T1, human-derived MDR1 (MDR1 coding P-gp) transporter protein (Homo sapiens, UniProt P08183); details: from N Engl J Med 2020;383:1207-1217 supporting information; cited from earlier work
T1 construct: expressed in transfected cells; host or cells: membrane vesicles expressing human MDR1
T1 sequence (P08183 whole entry): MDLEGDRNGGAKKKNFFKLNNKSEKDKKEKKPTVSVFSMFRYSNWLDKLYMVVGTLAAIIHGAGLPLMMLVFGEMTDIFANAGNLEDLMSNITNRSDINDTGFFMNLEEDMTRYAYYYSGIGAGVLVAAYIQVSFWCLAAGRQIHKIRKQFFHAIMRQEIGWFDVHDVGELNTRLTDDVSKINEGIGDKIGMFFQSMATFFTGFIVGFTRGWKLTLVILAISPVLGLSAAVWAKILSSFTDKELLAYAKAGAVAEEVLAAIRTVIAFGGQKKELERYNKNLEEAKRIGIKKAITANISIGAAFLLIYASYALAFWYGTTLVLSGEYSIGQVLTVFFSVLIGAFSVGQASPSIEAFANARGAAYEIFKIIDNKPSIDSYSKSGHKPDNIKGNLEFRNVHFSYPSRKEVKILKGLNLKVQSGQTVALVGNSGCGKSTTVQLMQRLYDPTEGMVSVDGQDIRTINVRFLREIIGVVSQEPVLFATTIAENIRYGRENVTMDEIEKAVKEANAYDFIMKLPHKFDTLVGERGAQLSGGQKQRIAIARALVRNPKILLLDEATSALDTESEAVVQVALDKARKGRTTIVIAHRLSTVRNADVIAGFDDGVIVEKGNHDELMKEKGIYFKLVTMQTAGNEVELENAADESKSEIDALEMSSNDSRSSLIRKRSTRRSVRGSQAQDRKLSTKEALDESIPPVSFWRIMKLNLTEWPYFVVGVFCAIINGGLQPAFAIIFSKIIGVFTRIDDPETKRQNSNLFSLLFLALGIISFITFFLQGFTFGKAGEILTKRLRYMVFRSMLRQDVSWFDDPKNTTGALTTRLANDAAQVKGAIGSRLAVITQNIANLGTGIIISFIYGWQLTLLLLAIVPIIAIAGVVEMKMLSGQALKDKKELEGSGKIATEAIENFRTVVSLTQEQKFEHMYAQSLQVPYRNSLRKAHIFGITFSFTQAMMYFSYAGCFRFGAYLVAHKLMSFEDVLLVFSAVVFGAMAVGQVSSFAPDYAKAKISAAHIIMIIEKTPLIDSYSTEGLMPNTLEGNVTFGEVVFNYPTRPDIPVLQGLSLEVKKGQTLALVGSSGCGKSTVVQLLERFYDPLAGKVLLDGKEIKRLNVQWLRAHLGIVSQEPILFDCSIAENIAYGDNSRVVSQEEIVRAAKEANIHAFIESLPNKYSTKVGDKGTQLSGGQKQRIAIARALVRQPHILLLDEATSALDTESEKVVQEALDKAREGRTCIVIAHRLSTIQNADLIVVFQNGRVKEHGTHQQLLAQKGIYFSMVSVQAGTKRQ

[3] = system: Chinese hamster lung fibroblasts (CHL cells); details: from N Engl J Med 2020;383:1207-1217 supporting information; cited from earlier work
[4] = system: NCI-H358-derived xenograft tumor; assay: Pharmacodynamics study of NCI-H358-derived xenograft tumor model, combination with Afatinib or Trametinib (test 10); type: in vivo, nude mice; details: i.g. QD×21 days, 3-2 10 mg/kg, Afatinib 10 mg/kg, Trametinib 0.1 mg/kg
Description: Animal species and number: Balb/c Nude; 6 animals per group. Test samples: […] Test groups: blank solvent control group; […] NCI-H358 tumor cells in logarithmic growth phase were cultured in vitro and collected, and inoculated subcutaneously into the right back of nude mice at a quantity of 5×10^6 cells/each. When the tumor volume reached 150-300 mm^3, the tumor-bearing nude mice were randomly grouped. Subsequently, the animals in each group were administered, and the day of the first administration was defined as day 1 of the test. Administration frequency: once a day. General state observation: observation time and frequency: once a day; observation indexes or contents: including but not limited to administration location, appearance and signs, general behavioral activities, mental status, death and other abnormal performance of the animals. The animals were euthanized at the end of the test. Tumor volume calculation: V=½×long diameter×short diameter^2 (mm^3).

[5] = Safety test for repeated administration for 14 days in SD rats; type: in vivo; details: oral gavage once a day for 14 days, 50, 150, 400 mg/kg
Description: (§1) Test samples: Compound 3-2, and Compound 3-6.
(§2) Animal species and number: SD rat; 6 animals per group (half male and half female).
(§3) Administration mode: oral administration by gavage.
Animal grouping and administration dose: vehicle blank group, Compound 3-2 group (50 mg/kg, 150 mg/kg, 400 mg/kg), Compound 3-6 group (50 mg/kg, 150 mg/kg, 400 mg/kg).
Administration frequency: once a day for 14 days.
(§4) General clinical observations were performed 2 times a day (once in the morning and once in the afternoon) during the test period. Death, morbidity, respiration, secretions, feces, and diet, drinking situation and so on were observed, and the changes in body weight of the rats during the administration period were recorded. The contents of detailed clinical observation included but were not limited to behavioral activity, skin, coat, eyes, ears, nose, abdomen, external genitalia, anus, extremities, feet, and respiration. The animals in each group were euthanized at the end of administration period, and all animals were dissected and subjected to gross observation.

[6] = Acute toxicity test, single oral dose in SD rats; type: in vivo; details: rat, in vivo
Description: as §1, §2, §3
Animal grouping and administration dose: vehicle blank group, Compound 3-2 group (500 mg/kg, 1000 mg/kg, 2000 mg/kg), Compound 3-6 group (500 mg/kg, 1000 mg/kg, 2000 mg/kg).
Administration frequency: once.
as §4, with “Death,” for “General clinical observations were performed 2 times a day (once in the morning and once in the afternoon) during the test period. Death,”, “of observation” for “of administration”

[7] = system: NCI-H358; assay: Cell proliferation inhibitory activity on NCI-H358, 3D model test (agarose colony formation); type: cell-based; details: for anti-cell proliferation activity against KRAS G12C mutant type cells NCI-H358 (in words): 3D model test; for IC50: Homo sapiens, NCI-H358, 3D agarose colony formation, NBT staining
Description: 100 μl of agarose gel with a high concentration was spread in a 96-well plate as the bottom agarose gel layer. Agarose with a low concentration and growth medium containing cells were mixed and then spread on the bottom agar layer, cooled and solidified, then incubated overnight at 37° C. Mother solutions were prepared from the test compounds by using DMSO, and then subjected to gradient elution with RPMI 1640 growth medium. The solutions of test compounds with different concentrations after gradient elution were added to the 96-well plate comprising an upper layer of agar gel-cells. Solvent control well was set up and the plate was incubated in a CO2 incubator. The drug-containing medium was changed during the incubation period and the cell growth situation was observed. After the incubation, the cells were stained with NBT and the number of cell colony formation was counted, and the IC50 values of the compounds inhibiting cell proliferation were derived.

[8] = system: MIA PaCa-2-derived xenograft tumor; assay: Pharmacodynamics test of MIA PaCa-2-derived xenograft tumor model in nude mice (test 6); type: in vivo; details: for inhibition effect on the growth of subcutaneously transplanted tumors derived from pancreatic cancer MIA paca-2 cells in nude mice (in words): 10 mg/kg QD×15 days; for Tumor inhibition rate (%): MIA PaCa-2 xenograft, nude mice, 10 mg/kg oral gavage QD×15 days
Description: Animal species and number: Balb/c Nude; 6 animals per group.
Test samples: Compound 3-2, Compound 3-6, Compound 3-20, Compound 3-12M.
Test groups: blank solvent control group; Compound 3-2 (10 mg/kg, QD×15 days), Compound 3-6 (10 mg/kg, QD×15 days), Compound 3-20 (10 mg/kg, QD×15 days), Compound 3-12M (10 mg/kg, QD×15 days).
Animal model establishment: MIA paca-2 tumor cells in logarithmic growth phase were cultured in vitro and collected, and inoculated subcutaneously into the right back of nude mice at a quantity of 5×10^6 cells/each. When the tumor volume reached 150-300 mm^3, the tumor-bearing nude mice were randomly grouped. Subsequently, the animals in each group were administered, and the day of the first administration was defined as day 1 of the test.
Administration route and frequency: oral administration by gavage; once a day.
General state observation: observation time and frequency: once a day; observation indexes or contents: including but not limited to administration location, appearance and signs, general behavioral activities, mental status, death and other abnormal performance of the animals. The animals were euthanized at the end of the test.
Tumor volume calculation: V=½×long diameter×short diameter^2 (mm^3). Tumor growth inhibition rate TGI (%) is used to evaluate the tumor inhibition efficacy of the compounds. TGI (%)=[1−(mean tumor volume in treatment group at the end of administration−mean tumor volume in treatment group at the beginning of administration)/(mean tumor volume in control group at the end of administration−mean tumor volume in control group at the beginning of administration)]×100%.

[9] = system: MIA PaCa-2 cells; assay: Cell proliferation activity of MIA PaCa-2 by CellTiter-Glo reagent; type: cell-based; details: 72 h, CellTiter-Glo; for IC50: Homo sapiens, MIA PaCa-2, read-out: IC50 value of cell proliferation inhibitory activity of the compound on MIA PaCa-2
Description: MIA PaCa-2 cells in exponential growth phase were digested with trypsin-EDTA, plated in a 96-well plate with 2000-3000 cells per well, and incubated overnight at 37° C. with 5% CO2. Mother solutions were prepared from the test compounds by using DMSO, subjected to gradient elution with DMEM growth medium, and then added into the 96-well plate and incubated in an incubator for 72 h at 37° C. with 5% CO2. After the incubation, CellTiter-Glo test reagent with an equal volume was added into each well and the obtained 96-well plate was incubated after shaking. The chemiluminescence values were determined by microplate reader, and the IC50 values of the test compounds inhibiting the proliferation of MIA PaCa-2 cells were fitted and calculated by GraphPad Prism software.
The test method of inhibitory activity was the same as that in Test 2 in “Biological Tests” part.

[10] = Preliminary safety test, 5-day escalating oral dosing in Balb/c mice; type: in vivo; details: for MTD at 5 days: both sexes, mouse, in vivo, oral gavage, initially suggested, read-out: maximum tolerated dose; for water and food intake, activity and body weight during the administration period (in words): oral gavage once a day for 5 days, 200 to 800 mg/kg
Description: Test samples: Compound 3-2, Compound 3-6, Compound 3-12M, Compound 3-20, and Compound 4-8.
Animal species and number: Balb/c; 6 animals per group (half male and half female).
as §3
Animal grouping and administration dose: vehicle blank group, Compound 3-2 group (200 mg/kg, 400 mg/kg, 800 mg/kg), Compound 3-6 group (200 mg/kg, 400 mg/kg, 800 mg/kg), Compound 3-12M group (200 mg/kg, 400 mg/kg, 800 mg/kg), Compound 3-20 group (200 mg/kg, 400 mg/kg, 800 mg/kg), Compound 4-8 group (200 mg/kg, 400 mg/kg, 800 mg/kg).
Administration frequency: once a day for 5 days.
General clinical observations were performed 2 times a day (once in the morning and once in the afternoon) during the test period. Death, morbidity, respiration, secretions, feces, and diet, drinking situation and so on were observed, and the changes in body weight of the mice during the administration period were recorded. The animals in each group were euthanized after the administration, and all animals were dissected and subjected to gross observation.

[11] = target: KRAS G12C (Homo sapiens, UniProt P01116, G12C); assay: Effect on KRAS(G12C) enzyme activity (KRAS G12C/c-Raf binding, Eu/d2 energy transfer); type: biochemical
Sequence of KRAS G12C (P01116 1-188 isoform P01116-2 G12C): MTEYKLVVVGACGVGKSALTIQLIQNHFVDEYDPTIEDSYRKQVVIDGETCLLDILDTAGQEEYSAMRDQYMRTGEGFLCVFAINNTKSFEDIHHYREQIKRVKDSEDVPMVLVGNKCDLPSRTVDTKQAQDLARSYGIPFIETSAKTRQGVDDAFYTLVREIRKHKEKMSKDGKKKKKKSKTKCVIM
Description: Compound stock solution was taken, and the test compound was subjected to gradient elution in DMSO. The above diluted compound was added into a quantitative volume of enzyme reaction buffer and subjected to oscillation on a microplate oscillator for 20 min.
4 μL of enzyme was transferred to a 384-well reaction plate. 1 μL of the test compound was added into the 384-well reaction plate. The plate was sealed with sealing film, and the reaction plate with the compound was centrifuged at 1000 rpm for 1 min and incubated for 60 min. 5 μL of a mixture of substrate and antibody was transferred to the 384-well reaction plate. The plate was sealed with sealing film, then centrifuged at 1000 rpm for 1 min and incubated for 120 min at room temperature.
Ratiopositive control: average value of the ratios of 10 positive control wells; Rationegative control: average value of the ratios of 10 negative control wells.

For `C=CC(=O)N1CCN(c2nc(=O)n(-c3c(C)ccnc3C(C)C)c3nc(-c4c(O)cccc4F)c(F)cc23)[C@@H](C)C1` [AMG510], the IC50 [1] is listed as 41 nM, the “substrate for P-gp (in words)” value [2] is listed as “is a substrate” and the “chromosome aberration effect test result (in words)” value [3] is listed as “positive result”.

For `CN(C)C/C=C/C(=O)Nc1cc2c(Nc3ccc(F)c(Cl)c3)ncnc2cc1O[C@H]1CCOC1` [Afatinib], the “Tumor inhibition rate (%)” value [4] was “+ (“+” represents a tumor inhibition rate of <130%)”.

For `C=CC(=O)N1CCN(c2nc(=O)n(-c3c(C)ccnc3C(C)C)c3nc(-c4c(F)cccc4C=C)c(Cl)cc23)[C@@H](C)C1` [Compound 3-6], the “water and food intake, activity and body weight during the administration period (in words)” value (from here on “water and food intake”) [5] was “no significant abnormality was showed”, the MTD ([6]; both sexes, SD rats, single oral gavage, 500, 1000, 2000 mg/kg, read-out: maximum tolerated dose (MTD)) was ≥ 2000 mg/kg and the “death or morbidity after single dose (in words)” value [6] was “No animals in each group were dead or close to death”. For the same compound, the IC50 [1] was 11 nM, the “anti-cell proliferation activity against KRAS G12C mutant type cells NCI-H358 (in words)” value [7] was “significant anti-cell proliferation activity” and the IC50 [7] was < 50 nM. For the same compound, the “inhibition effect on the growth of subcutaneously transplanted tumors derived from pancreatic cancer MIA paca-2 cells in nude mice (in words)” value [8] was “significant inhibition effect”, the “Tumor inhibition rate (%)” value [8] was “+++ (“+++” represents a tumor inhibition rate of >80%)” and the “anti-cell proliferation activity against KRAS G12C mutant type cells MIA PaCa-2 (in words)” value [9] was “significant anti-cell proliferation activity”. The IC50 [9] was < 50 nM, the MTD at 5 days [10] was > 800 mg/kg and the “water and food intake” value [10] was “no significant abnormality was showed”.

In the case of `[2H]C([2H])=Cc1cccc(F)c1-c1nc2c(cc1Cl)c(N1CCN(C(=O)C=C)C[C@@H]1C)nc(=O)n2-c1c(C)ccnc1C(C)C` [Compound 3-20], the IC50 [1] is reported as 10 nM, the “cell proliferation inhibitory activity of NCI-H358 compared with AMG510 (in words)” value ([1]; test 8) is reported as “better than AMG510” and the “inhibitory activity on KRAS G12C enzyme compared with AMG510 (in words)” value [11] is reported as “remarkable better”. For the same compound, the IC50 ([11]; 60 min incubation with enzyme, read-out: IC50 value of the compound on KRAS G12C enzyme activity) was 19 nM, the “anti-cell proliferation activity against KRAS G12C mutant type cells NCI-H358 (in words)” value [7] was “significant anti-cell proliferation activity” and the IC50 [7] was < 50 nM. For the same compound, the “inhibition effect on the growth of subcutaneously transplanted tumors derived from pancreatic cancer MIA paca-2 cells in nude mice (in words)” value [8] was “significant inhibition effect”, the “Tumor inhibition rate (%)” value [8] was “+++ (“+++” represents a tumor inhibition rate of >80%)” and the “anti-cell proliferation activity against KRAS G12C mutant type cells MIA PaCa-2 (in words)” value [9] was “significant anti-cell proliferation activity”. The IC50 [9] was < 50 nM and the “water and food intake” value [10] was “no significant abnormality was showed”.

With `[2H]C([2H])=Cc1ccccc1-c1nc2c(cc1Cl)c(N1CCN(C(=O)C=C)C[C@@H]1C)nc(=O)n2-c1c(C([2H])([2H])[2H])ccnc1C(C)C` [Compound 4-8] the IC50 [7] was < 50 nM, the IC50 [9] was < 50 nM and the MTD at 5 days [10] was > 800 mg/kg. The “water and food intake” value [10] was “no significant abnormality was showed”.

With `[2H]C([2H])=Cc1ccccc1-c1nc2c(cc1Cl)c(N1CCN(C(=O)C=C)C[C@@H]1C)nc(=O)n2-c1c(C(C)C)ccnc1C(C)C` [Compound 5-8] the IC50 [7] was < 50 nM and the IC50 [9] was < 50 nM.

For `C=CC(=O)N1CCN(c2nc(=O)n(-c3c(C(C)C)ccnc3C(C)C)c3nc(-c4ccccc4C=C)c(Cl)cc23)[C@@H](C)C1` [Compound 5-24], the IC50 [7] was < 50 nM and the IC50 [9] was < 50 nM.

For `CC(=O)Nc1cccc(-n2c(=O)n(C3CC3)c(=O)c3c(Nc4ccc(I)cc4F)n(C)c(=O)c(C)c32)c1` [Trametinib], the “Tumor inhibition rate (%)” value [4] was “+ (“+” represents a tumor inhibition rate of <130%)”.
